Laboratory results reported in patent US8513297B2, “Biaromatic compounds that modulate PPARy type receptors and cosmetic/pharmaceutical compositions comprised thereof” (Galderma Research & Development, priority 2004, dated 2013).
Where a name gives a salt, the structure may show the parent alone.

Assays:
Type in all cases: cell-based
PPARδ = target: T1, PPARδ (Homo sapiens, UniProt Q03181); test: Crossover-curve PPAR transactivation test, PPARδ; settings: HeLN cells stably transfected with Gal-hPPARδ and luciferase reporter; Schild regression against reference agonist; n.a. means not active; read-out: PPARδ Kd app
T1 construct: Either way it is a handle and not a second protein
T1 sequence (Q03181 211-441 limits assumed): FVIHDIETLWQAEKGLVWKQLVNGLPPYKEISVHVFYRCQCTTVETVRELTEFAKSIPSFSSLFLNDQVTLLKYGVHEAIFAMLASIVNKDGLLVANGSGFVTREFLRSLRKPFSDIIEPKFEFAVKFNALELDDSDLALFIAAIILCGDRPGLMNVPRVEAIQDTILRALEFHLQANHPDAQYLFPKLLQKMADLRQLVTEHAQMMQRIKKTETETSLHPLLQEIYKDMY
Description: (§1) The activation of PPAR receptors with an agonist (activator) in HeLN cells leads to the expression of a reporter gene, luciferase, which, in the presence of a substrate, generates light. The modulation of the PPAR receptors is measured by quantifying the luminescence produced after incubating the cells in the presence of a reference agonist. The ligands displace the agonist from its site. The measurement of the activity is performed by quantifying the light produced. This measurement makes it possible to determine the modulatory activity of the compounds according to the invention by determining the constant that is the affinity of the molecule for the PPAR receptor. Since this value can fluctuate depending on the basal activity and the expression of the receptor, it is referred to as Kd apparent (KdApp in nM).
To determine this constant, “crossover curves” of the test product against a reference agonist are performed in a 96-well plate: 10 concentrations of the test product plus a concentration 0 are arranged in a line, and 7 concentrations of the agonist plus a concentration 0 are arranged in a column. This is 88 measurement points for 1 product and 1 receptor. […]
The various dilutions of the test products and of the reference ligand are added at a rate of 5 μl per well. […] After 5 minutes, the plates are read by the luminescence detector.

PPARγ = target: T2, PPARγ (Homo sapiens, UniProt P37231); test: Crossover-curve PPAR transactivation test, PPARγ; settings: HeLN cells stably transfected with Gal-hPPARγ and luciferase reporter; Schild regression against reference agonist; n.a. means not active; read-out: PPARγ Kd app
T2 construct: Either way it is a handle and not a second protein
T2 sequence (P37231 238-505 limits assumed): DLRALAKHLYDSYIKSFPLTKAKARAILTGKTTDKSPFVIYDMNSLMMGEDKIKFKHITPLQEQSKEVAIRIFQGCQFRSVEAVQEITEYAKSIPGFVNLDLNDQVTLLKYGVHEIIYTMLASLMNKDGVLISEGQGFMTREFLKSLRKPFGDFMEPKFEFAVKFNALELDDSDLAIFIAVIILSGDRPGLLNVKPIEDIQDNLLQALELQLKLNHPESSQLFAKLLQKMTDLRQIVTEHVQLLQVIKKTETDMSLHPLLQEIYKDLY
Description: as §1
(§2) To determine this constant, “crossover curves” of the test product against a reference agonist are performed in a 96-well plate: 10 concentrations of the test product plus a concentration 0 are arranged in a line, and 7 concentrations of the agonist plus a concentration 0 are arranged in a column. This is 88 measurement points for 1 product and 1 receptor. The remaining 8 wells are used for repeatability controls.
(§3) Measurements are also taken for total agonist controls with the same products.
(§4) The HeLN cell lines used are stable transfectants containing the plasmids ERE-βGlob-Luc-SV-Neo (reporter gene) and PPAR (α, δ, γ) Gal-hPPAR. These cells are inoculated into 96-well plates at a rate of 10 000 cells per well in 100 μl of DMEM medium without phenol red and supplemented with 10% of defatted calf serum. The plates are then incubated at 37° C. and 7% CO2 for 16 hours.
(§5) The various dilutions of the test products and of the reference ligand are added at a rate of 5 μl per well. The plates are then incubated for 18 hours at 37° C. and 7% CO2. The culture medium is removed by turning over and 100 μl of a 1:1 PBS/luciferine mixture are added to each well. After 5 minutes, the plates are read by the luminescence detector.

PPARα = target: T3, PPARα (Homo sapiens, UniProt Q07869); test: Crossover-curve PPAR transactivation test, PPARα; settings: HeLN cells stably transfected with Gal-hPPARα and luciferase reporter; Schild regression against reference agonist; n.a. means not active; read-out: PPARα Kd app
T3 construct: Either way it is a handle and not a second protein
T3 sequence (Q07869 200-468 limits assumed): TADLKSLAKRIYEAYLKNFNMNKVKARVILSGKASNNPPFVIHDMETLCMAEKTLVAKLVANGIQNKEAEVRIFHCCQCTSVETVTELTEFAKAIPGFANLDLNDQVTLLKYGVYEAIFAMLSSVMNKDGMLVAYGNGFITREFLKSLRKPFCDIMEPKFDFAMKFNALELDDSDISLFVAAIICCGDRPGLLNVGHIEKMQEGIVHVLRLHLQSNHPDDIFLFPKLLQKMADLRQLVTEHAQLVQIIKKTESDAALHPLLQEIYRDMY
Description: as §1, §2, §3, §4, §5

| Structure (SMILES) | Kd (PPARδ) [nM] | Kd (PPARγ) [nM] | Kd (PPARα) [nM] |
| --- | --- | --- | --- |
| CCCCCCCNC(=O)N(C)c1cccc(-c2ccc(CCC(=O)O)cc2OCCCC)n1 [Example 12, 2-[2-butoxy-4-(2-carboxyethyl)phenyl]-6-(1-methyl-3-heptylureido)pyridinium hydrochloride] |  | 15 | 4000 |
| CCCCOc1cc(CCC(=O)O)ccc1-c1csc(CN(C)C(=O)c2ccc(OC)cc2)c1 [Example 15, 3-[3-butoxy-4-(5-{[(4-methoxybenzoyl)methylamino]methyl}thiophen-3-yl)phenyl]propanoic acid] |  | 30 |  |
| CCCCCNC(=O)N(C)c1cccc(-c2ccc(CCC(=O)O)cc2OCCCC)n1 [Example 11, 2-[2-butoxy-4-(2-carboxyethyl)phenyl]-6-(1-methyl-3-pentylureido)pyridinium hydrochloride] |  | 120 | 2000 |
| CCCCCCCC(=O)N(C)Cc1cc(-c2ccc(CCC(=O)O)cc2OCCCC)cs1 [Example 14, 3-(3-butoxy-4-{5-[(methyloctanoylamino)methyl]thiophen-3-yl}phenyl)propanoic acid] |  | 2 |  |
| CCCCOc1cc(CCC(=O)O)ccc1-c1csc(CN(C)C(=O)c2cccc(OC)c2)c1 [Example 16, 3-[3-butoxy-4-(5-{[(3-methoxybenzoyl)methylamino]methyl}thiophen-3-yl)phenyl]propanoic acid] |  | 30 |  |

More lines, main results first:

| Kd (PPARδ) [nM] | Kd (PPARγ) [nM] | Structure (SMILES) | Kd (PPARα) [nM] |
| --- | --- | --- | --- |
| 4000 | 250 | CCCCCCCNC(=O)N(C)c1cccc(-c2ccc(CCC(=O)O)cc2)n1 [Example 6, 3-{4-[6-(3-heptyl-1-methylureido)pyrid-2-yl]phenyl}propanoic acid] |  |
|  | 1000 | CCCCCCCC(=O)N(C)Cc1cccc(-c2ccc(/C=C/C(=O)O)s2)c1 [Example 1, 3-(5-{3-[(methyloctanoylamino)methyl]phenyl}thiophen-2-yl)acrylic acid] |  |
|  | 60 | CCCCCCCNC(=O)N(C)c1cccc(-c2ccc(CCC(=O)O)cn2)c1 [Example 7, 3-{6-[3-(3-heptyl-1-methylureido)phenyl]pyrid-3-yl}propanoic acid] |  |
|  | 500 | CCCCCCCC(=O)N(C)Cc1cccc(-c2ccc(CCC(=O)O)s2)c1 [Example 2, 3-(5-{3-[(methyloctanoylamino)methyl]phenyl}thiophen-2-yl)propanoic acid] |  |
| 8000 | 120 | CCCCCCCNC(=O)N(C)c1cccc(-c2ccc(CCC(=O)O)cc2OCC)n1 [Example 13, 2-[4-(2-carboxyethyl)-2-ethoxyphenyl]-6-(3-heptyl-1-methylureido)pyridinium hydrochloride] | 4000 |
|  | 1000 | CCCCCCCNC(=O)N(C)c1ccnc(-c2ccc(CCC(=O)O)cc2)c1 [Example 8, 2-[4-(2-carboxyethyl)phenyl]-4-(3-heptyl-1-methylureido)pyridinium acetate] |  |
